# According to the supplement of paper PMC10307832:
# How the values were obtained:
# Experiment in all cases: relative viability (nuclei count vs DMSO), 5 days (fraction); higher = more cells survive
# SW 1573 = test system: SW 1573
# Procedure, shortened: (§1)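 For relative viability, nuclei counts in treated wells were divided by those in vehicle wells. Lung cancer cell lines had been pin-tool dosed in 1536-well plates the day after seeding and cultured for 5 days, then fixed and stained in one step (final 0.05% Triton X-100, 1% formaldehyde, 1 ug/ml Hoechst) and imaged at 4×. Doses were one drug alone or a fixed anchor-drug dose plus five library-drug doses (not always all listed) in √10 steps, and values are duplicate-plate medians.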
# NCI-H1734 = test system: NCI-H1734
# Procedure, shortened: as §1
# NCI-H522 = test system: NCI-H522
# Procedure, shortened: as §1
# NCI-H2342 = test system: NCI-H2342
# Procedure, shortened: as §1
# RERF-LC-KJ = test system: RERF-LC-KJ
# Procedure, shortened: as §1
# NCI-H2228 = test system: NCI-H2228
# Procedure, shortened: as §1
# NCI-H1915 = test system: NCI-H1915
# Procedure, shortened: as §1
# HOP-62 = test system: HOP-62
# Procedure, shortened: as §1
# PC-3 [JPC-3] = test system: PC-3 [JPC-3]
# Procedure, shortened: as §1
# HCC-78 = test system: HCC-78
# Procedure, shortened: as §1
# NCI-H1975 = test system: NCI-H1975
# Procedure, shortened: as §1
# NCI-H1792 = test system: NCI-H1792
# Procedure, shortened: as §1
# NCI-H1755 = test system: NCI-H1755
# Procedure, shortened: as §1
# NCI-H2126 = test system: NCI-H2126
# Procedure, shortened: as §1
# HCC-15 = test system: HCC-15
# Procedure, shortened: as §1
# NCI-H358 = test system: NCI-H358
# Procedure, shortened: as §1
# LXF-289 = test system: LXF-289
# Procedure, shortened: as §1
# NCI-H647 = test system: NCI-H647
# Procedure, shortened: as §1
# LC-2-ad = test system: LC-2-ad
# Procedure, shortened: as §1
# A-427 = test system: A-427
# Procedure, shortened: as §1
# SK-LU-1 = test system: SK-LU-1
# Procedure, shortened: as §1
# NCI-H2347 = test system: NCI-H2347
# Procedure, shortened: as §1
structure (smiles),measurement,setting,value
CCN(CC)CCCCNc1ncc2cc(-c3cc(OC)cc(OC)c3)c(NC(=O)NC(C)(C)C)nc2n1 + CC(=O)c1c(C)c2cnc(Nc3ccc(N4CCNCC4)cn3)nc2n(C2CCCC2)c1=O [Palbociclib] (partner 0.5 µM),relative viability,SW 1573; first compound 0.01 µM,0.377
same,relative viability,SW 1573; first compound 0.03162 µM,0.407
same,relative viability,SW 1573; first compound 0.1 µM,0.519
same,relative viability,SW 1573; first compound 0.3162 µM,0.398
same,relative viability,SW 1573; first compound 1 µM,0.331
same,relative viability,NCI-H1734; first compound 0.01 µM,0.16
same,relative viability,NCI-H1734; first compound 0.03162 µM,0.281
same,relative viability,NCI-H1734; first compound 0.1 µM,0.334
same,relative viability,NCI-H1734; first compound 0.3162 µM,0.38
same,relative viability,NCI-H1734; first compound 1 µM,0.323
same,relative viability,NCI-H522; first compound 0.01 µM,1.04
same,relative viability,NCI-H522; first compound 0.03162 µM,1.01
same,relative viability,NCI-H522; first compound 0.1 µM,0.921
same,relative viability,NCI-H522; first compound 0.3162 µM,1.12
same,relative viability,NCI-H522; first compound 1 µM,0.935
same,relative viability,NCI-H2342; first compound 0.01 µM,0.514
same,relative viability,NCI-H2342; first compound 0.03162 µM,0.514
same,relative viability,NCI-H2342; first compound 0.1 µM,0.528
same,relative viability,NCI-H2342; first compound 0.3162 µM,0.548
same,relative viability,NCI-H2342; first compound 1 µM,0.556
same,relative viability,RERF-LC-KJ; first compound 0.01 µM,1.07
same,relative viability,RERF-LC-KJ; first compound 0.03162 µM,1.12
same,relative viability,RERF-LC-KJ; first compound 0.1 µM,1.2
same,relative viability,RERF-LC-KJ; first compound 0.3162 µM,1.13
same,relative viability,RERF-LC-KJ; first compound 1 µM,1.05
same,relative viability,NCI-H2228; first compound 0.01 µM,1.23
same,relative viability,NCI-H2228; first compound 0.03162 µM,0.561
same,relative viability,NCI-H2228; first compound 0.1 µM,0.434
same,relative viability,NCI-H2228; first compound 0.3162 µM,0.862
same,relative viability,NCI-H2228; first compound 1 µM,0.513
same,relative viability,NCI-H1915; first compound 0.01 µM,0.655
same,relative viability,NCI-H1915; first compound 0.03162 µM,0.528
same,relative viability,NCI-H1915; first compound 0.1 µM,0.557
same,relative viability,NCI-H1915; first compound 0.3162 µM,0.546
same,relative viability,NCI-H1915; first compound 1 µM,0.496
same,relative viability,HOP-62; first compound 0.01 µM,0.463
same,relative viability,HOP-62; first compound 0.03162 µM,0.455
same,relative viability,HOP-62; first compound 0.1 µM,0.481
same,relative viability,HOP-62; first compound 0.3162 µM,0.425
same,relative viability,HOP-62; first compound 1 µM,0.45
same,relative viability,PC-3 [JPC-3]; first compound 0.03162 µM,0.607
same,relative viability,PC-3 [JPC-3]; first compound 0.1 µM,0.616
same,relative viability,PC-3 [JPC-3]; first compound 0.3162 µM,0.539
same,relative viability,PC-3 [JPC-3]; first compound 1 µM,0.58
same,relative viability,HCC-78; first compound 0.01 µM,0.465
same,relative viability,HCC-78; first compound 0.03162 µM,0.448
same,relative viability,HCC-78; first compound 0.1 µM,0.525
same,relative viability,HCC-78; first compound 0.3162 µM,0.45
same,relative viability,HCC-78; first compound 1 µM,0.465
same,relative viability,NCI-H1975; first compound 0.01 µM,0.608
same,relative viability,NCI-H1975; first compound 0.03162 µM,0.498
same,relative viability,NCI-H1975; first compound 0.1 µM,0.589
same,relative viability,NCI-H1975; first compound 0.3162 µM,0.697
same,relative viability,NCI-H1975; first compound 1 µM,0.475
same,relative viability,NCI-H1792; first compound 0.01 µM,0.66
same,relative viability,NCI-H1792; first compound 0.03162 µM,0.623
same,relative viability,NCI-H1792; first compound 0.1 µM,0.568
same,relative viability,NCI-H1792; first compound 0.3162 µM,0.562
same,relative viability,NCI-H1792; first compound 1 µM,0.639
same,relative viability,NCI-H1755; first compound 0.01 µM,0.474
same,relative viability,NCI-H1755; first compound 0.03162 µM,0.448
same,relative viability,NCI-H1755; first compound 0.1 µM,0.462
same,relative viability,NCI-H1755; first compound 0.3162 µM,0.472
same,relative viability,NCI-H1755; first compound 1 µM,0.459
same,relative viability,NCI-H2126; first compound 0.01 µM,0.353
same,relative viability,NCI-H2126; first compound 0.03162 µM,0.37
same,relative viability,NCI-H2126; first compound 0.1 µM,0.399
same,relative viability,NCI-H2126; first compound 0.3162 µM,0.345
same,relative viability,NCI-H2126; first compound 1 µM,0.355
same,relative viability,HCC-15; first compound 0.01 µM,0.82
same,relative viability,HCC-15; first compound 0.03162 µM,0.826
same,relative viability,HCC-15; first compound 0.1 µM,0.826
same,relative viability,HCC-15; first compound 0.3162 µM,0.797
same,relative viability,HCC-15; first compound 1 µM,0.729
same,relative viability,NCI-H358; first compound 0.01 µM,0.146
same,relative viability,NCI-H358; first compound 0.03162 µM,0.123
same,relative viability,NCI-H358; first compound 0.1 µM,0.159
same,relative viability,NCI-H358; first compound 0.3162 µM,0.139
same,relative viability,NCI-H358; first compound 1 µM,0.136
same,relative viability,LXF-289; first compound 0.01 µM,0.628
same,relative viability,LXF-289; first compound 0.03162 µM,0.581
same,relative viability,LXF-289; first compound 0.1 µM,0.673
same,relative viability,LXF-289; first compound 0.3162 µM,0.61
same,relative viability,LXF-289; first compound 1 µM,0.559
same,relative viability,NCI-H647; first compound 0.01 µM,0.309
same,relative viability,NCI-H647; first compound 0.03162 µM,0.42
same,relative viability,NCI-H647; first compound 0.1 µM,0.427
same,relative viability,NCI-H647; first compound 0.3162 µM,0.497
same,relative viability,NCI-H647; first compound 1 µM,0.394
same,relative viability,LC-2-ad; first compound 0.01 µM,0.503
same,relative viability,LC-2-ad; first compound 0.03162 µM,0.486
same,relative viability,LC-2-ad; first compound 0.1 µM,0.491
same,relative viability,LC-2-ad; first compound 0.3162 µM,0.589
same,relative viability,LC-2-ad; first compound 1 µM,0.473
same,relative viability,A-427; first compound 0.01 µM,0.58
same,relative viability,A-427; first compound 0.03162 µM,0.475
same,relative viability,A-427; first compound 0.1 µM,0.59
same,relative viability,A-427; first compound 0.3162 µM,0.501
same,relative viability,A-427; first compound 1 µM,0.398
same,relative viability,SK-LU-1; first compound 0.01 µM,0.457
same,relative viability,SK-LU-1; first compound 0.03162 µM,0.387
same,relative viability,SK-LU-1; first compound 0.1 µM,0.359
same,relative viability,SK-LU-1; first compound 0.3162 µM,0.434
same,relative viability,SK-LU-1; first compound 1 µM,0.309
same,relative viability,NCI-H2347; first compound 0.01 µM,0.551
same,relative viability,NCI-H2347; first compound 0.03162 µM,0.452
same,relative viability,NCI-H2347; first compound 0.1 µM,0.415
same,relative viability,NCI-H2347; first compound 0.3162 µM,0.484
same,relative viability,NCI-H2347; first compound 1 µM,0.387
